Data set [1] deals with T1, recombinant human (rh) PDE5A (Homo sapiens, UniProt O76074).
T1 construct: GST; purchased SIGMA E9034
Kind of data set: Phosphodiesterase-5 activity assay (radiometric SPA). To be noted: rhPDE5A1, 0.5 μM cGMP, 20 min at 37° C. The format is biochemical.

A short description of data set [2]: Human plasma protein binding. The format is in vitro ADME. The settings on record: for fraction unbound: human. The method, then: An aliquot of 200 μL of human plasma containing test compound was spiked into donor well (red chamber) of the insert. 350 μL of PBS was spiked into receiver well (white chamber) of the insert.
The samples were matrix equilibrated with opposite matrix (25 μL of plasma/buffer sample was matched with 25 μL of blank buffer/plasma). Matrix matched samples were precipitated with 200 μL of acetonitrile containing internal standard. Samples were vortexed at 1000 rpm for 5 min and centrifuged at 4000 rpm for 10 min. Supernatant was separated, diluted 2 fold with water and analysed in LC-MS/MS. (Table 2).

[3] abbreviates: read-out: % Unbound in human plasma.

Like-named read-outs stand apart in the source and are kept apart here.

For orientation: IC50 means the midpoint of a concentration-inhibition curve. For the compound “4-ethoxy-3-(5-methyl-4-oxo-7-propyl-3,4-dihydroimidazo[5,1-f][1,2,4]triazin-2-yl)benzenesulfonyl chloride [Compound 24]”, the half-maximal inhibitory concentration (IC50) in data set [1] was 0.4 nM.

`CCCc1nn(C)c2c(=O)[nH]c(-c3cc(S(=O)(=O)N4CCC(C(O)C(CO[N+](=O)[O-])CO[N+](=O)[O-])CC4)ccc3OCC)nc12` (racemic) [Compound 1i, 2-((1-((4-ethoxy-3-(1-methyl-7-oxo-3-propyl-6,7-dihydro-1H-pyrazolo[4,3-d]pyrimidin-5-yl)phenyl)sulfonyl)piperidin-4-yl)(hydroxy)methyl)propane-1,3-diyl dinitrate]: the IC50 in data set [1] was determined as 4.2 nM. Further, the “% Bound in human plasma” value in data set [2] is 99.85%. Also, the fraction unbound in data set [2] (setting [3]) worked out at 0.0015.

`CCCc1nc(C)c2c(=O)[nH]c(-c3cc(S(=O)(=O)N4CCC(C(O)CCO)CC4)ccc3OCC)nn12` (racemic) [Compound 27, 2-(5-((4-(1,3-dihydroxypropyl)piperidin-1-yl)sulfonyl)-2-ethoxyphenyl)-5-methyl-7-propylimidazo[5,1-f][1,2,4]triazin-4(3H)-one]: in data set [1], the IC50 amounted to 0.4 nM.

For the compound `CCCc1nn(C)c2c(=O)[nH]c(-c3cc(S(=O)(=O)N4CCC(C(O)CCO[N+](=O)[O-])CC4)ccc3OCC)nc12` (single isomer, unassigned) [Compound 1e, 3-(1-((4-ethoxy-3-(1-methyl-7-oxo-3-propyl-6,7-dihydro-1H-pyrazolo[4,3-d]pyrimidin-5-yl)phenyl)sulfonyl)piperidin-4-yl)-3-hydroxypropyl nitrate], the concentration for half-maximal inhibition (IC50) in data set [1] was determined as 4.6 nM.

Consider `CCCc1nn(C)c2c(=O)[nH]c(-c3cc(S(=O)(=O)N4CCC(C(O)CCO[N+](=O)[O-])CC4)ccc3OCC)nc12` (single isomer, unassigned) [Compound 1f, 3-(1-((4-ethoxy-3-(1-methyl-7-oxo-3-propyl-6,7-dihydro-1H-pyrazolo[4,3-d]pyrimidin-5-yl)phenyl)sulfonyl)piperidin-4-yl)-3-hydroxypropyl nitrate], for which the IC50 in data set [1] was found to be 3.8 nM.

As to `CCCc1nn(C)c2c(=O)[nH]c(-c3cc(S(=O)(=O)N4CCC(C(CO)O[N+](=O)[O-])CC4)ccc3OCC)nc12` (single isomer, unassigned) [Compound 1k, 1-(1-((4-ethoxy-3-(1-methyl-7-oxo-3-propyl-6,7-dihydro-1H-pyrazolo[4,3-d]pyrimidin-5-yl)phenyl)sulfonyl)piperidin-4-yl)-2-hydroxyethyl nitrate], in data set [1], the IC50 came out at 0.55 nM.

Regarding `CCCc1nn(C)c2c(=O)[nH]c(-c3cc(S(=O)(=O)N4CCC(C(CO)O[N+](=O)[O-])CC4)ccc3OCC)nc12` (single isomer, unassigned) [Compound 1l, 1-(1-((4-ethoxy-3-(1-methyl-7-oxo-3-propyl-6,7-dihydro-1H-pyrazolo[4,3-d]pyrimidin-5-yl)phenyl)sulfonyl)piperidin-4-yl)-2-hydroxyethyl nitrate], the IC50 in data set [1] amounted to 0.69 nM.

On to `CCCc1nc(C)c2c(=O)[nH]c(-c3cc(S(=O)(=O)N4CCC(C(O)CCO[N+](=O)[O-])CC4)ccc3OCC)nn12` (single isomer, unassigned) [Compound 2e, 3-(1-((4-ethoxy-3-(5-methyl-4-oxo-7-propyl-3,4-dihydroimidazo[5,1-f][1,2,4]triazin-2-yl)phenyl)sulfonyl)piperidin-4-yl)-3-hydroxypropyl nitrate], for which, in data set [1], the IC50 was found to be 0.2 nM.

Take `CCCc1nc(C)c2c(=O)[nH]c(-c3cc(S(=O)(=O)N4CCC(C(O)CCO[N+](=O)[O-])CC4)ccc3OCC)nn12` (single isomer, unassigned) [Compound 2f, 3-(1-((4-ethoxy-3-(5-methyl-4-oxo-7-propyl-3,4-dihydroimidazo[5,1-f][1,2,4]triazin-2-yl)phenyl)sulfonyl)piperidin-4-yl)-3-hydroxypropyl nitrate]: in data set [1], the IC50 was found to be 0.3 nM.

In the case of `CCCc1nc(C)c2c(=O)[nH]c(-c3cc(S(=O)(=O)N4CCC(C(CO)O[N+](=O)[O-])CC4)ccc3OCC)nn12` (single isomer, unassigned) [Compound 2k, 1-(1-((4-ethoxy-3-(5-methyl-4-oxo-7-propyl-3,4-dihydroimidazo[5,1-f][1,2,4]triazin-2-yl)phenyl)sulfonyl)piperidin-4-yl)-2-hydroxyethyl nitrate], the IC50 in data set [1] stood at 0.26 nM.

Regarding `CCCc1nc(C)c2c(=O)[nH]c(-c3cc(S(=O)(=O)N4CCC(C(CO)O[N+](=O)[O-])CC4)ccc3OCC)nn12` (single isomer, unassigned) [Compound 2l, 1-(1-((4-ethoxy-3-(5-methyl-4-oxo-7-propyl-3,4-dihydroimidazo[5,1-f][1,2,4]triazin-2-yl)phenyl)sulfonyl)piperidin-4-yl)-2-hydroxyethyl nitrate], the half-inhibitory concentration (IC50) in data set [1] was 0.17 nM.

Take `CCCc1nn(C)c2c(=O)[nH]c(-c3cc(S(=O)(=O)N4CCC(C(O)CCO)CC4)ccc3OCC)nc12` (single isomer, unassigned) [Compound 14-1, 5-(5-((4-(1,3-dihydroxypropyl)piperidin-1-yl)sulfonyl)-2-ethoxyphenyl)-1-methyl-3-propyl-1,6-dihydro-7H-pyrazolo[4,3-d]pyrimidin-7-one]: in data set [1], the IC50 was 4.4 nM.

Turning to `CCCc1nn(C)c2c(=O)[nH]c(-c3cc(S(=O)(=O)N4CCC(C(O)CCO)CC4)ccc3OCC)nc12` (single isomer, unassigned) [Compound 14-2, 5-(5-((4-(1,3-dihydroxypropyl)piperidin-1-yl)sulfonyl)-2-ethoxyphenyl)-1-methyl-3-propyl-1,6-dihydro-7H-pyrazolo[4,3-d]pyrimidin-7-one], the IC50 in data set [1] was found to be 3.9 nM.

As for `CCCc1nn(C)c2c(=O)[nH]c(-c3cc(S(=O)(=O)N4CCC([C@@H](CO[N+](=O)[O-])O[N+](=O)[O-])CC4)ccc3OCC)nc12` [Compound 1b, (S)-1-(1-((4-ethoxy-3-(1-methyl-7-oxo-3-propyl-6,7-dihydro-1H-pyrazolo[4,3-d]pyrimidin-5-yl)phenyl)sulfonyl)piperidin-4-yl)ethane-1,2-diyl dinitrate], the IC50 in data set [1] is 4.9 nM.

Consider `CCCc1nn(C)c2c(=O)[nH]c(-c3cc(S(=O)(=O)N4CCC([C@H](O)CO[N+](=O)[O-])CC4)ccc3OCC)nc12` [Compound 1d, (S)-2-(1-((4-ethoxy-3-(1-methyl-7-oxo-3-propyl-6,7-dihydro-1H-pyrazolo[4,3-d]pyrimidin-5-yl)phenyl)sulfonyl)piperidin-4-yl)-2-hydroxyethyl nitrate], for which the IC50 in data set [1] worked out at 1.2 nM.

With `CCCc1nn(C)c2c(=O)[nH]c(-c3cc(S(=O)(=O)N4CCC(C(O)(CCO)CCO[N+](=O)[O-])CC4)ccc3OCC)nc12` (centres unmarked) [Compound 1g, 3-(1-((4-ethoxy-3-(1-methyl-7-oxo-3-propyl-6,7-dihydro-1H-pyrazolo[4,3-d]pyrimidin-5-yl)phenyl)sulfonyl)piperidin-4-yl)-3,5-dihydroxypentyl nitrate], in data set [1], the IC50 was found to be 4.8 nM.

As for `CCCc1nn(C)c2c(=O)[nH]c(-c3cc(S(=O)(=O)N4CCC(C(O)(CCO[N+](=O)[O-])CCO[N+](=O)[O-])CC4)ccc3OCC)nc12` [Compound 1h, 3-(1-((4-ethoxy-3-(1-methyl-7-oxo-3-propyl-6,7-dihydro-1H-pyrazolo[4,3-d]pyrimidin-5-yl)phenyl)sulfonyl)piperidin-4-yl)-3-hydroxypentane-1,5-diyl dinitrate], the concentration for half-maximal inhibition (IC50) in data set [1] came to 4.7 nM.

With `CCCc1nc(C)c2c(=O)[nH]c(-c3cc(S(=O)(=O)N4CCC([C@@H](CO[N+](=O)[O-])O[N+](=O)[O-])CC4)ccc3OCC)nn12` [Compound 2b, (S)-1-(1-((4-ethoxy-3-(5-methyl-4-oxo-7-propyl-3,4-dihydroimidazo[5,1-f][1,2,4]triazin-2-yl)phenyl)sulfonyl)piperidin-4-yl)ethane-1,2-diyl dinitrate], the IC50 in data set [1] was determined as 0.28 nM.

For `CCCc1nn(C)c2c(=O)[nH]c(-c3cc(S(=O)(=O)N4CCC([C@H](O)CO)CC4)ccc3OCC)nc12` [Compound 6, (S)-5-(5-((4-(1,2-dihydroxyethyl)piperidin-1-yl)sulfonyl)-2-ethoxyphenyl)-1-methyl-3-propyl-1,6-dihydro-7H-pyrazolo[4,3-d]pyrimidin-7-one], the IC50 in data set [1] is 1.6 nM.

Consider `CCCc1nn(C)c2c(=O)[nH]c(-c3cc(S(=O)(=O)N4CCC(C(O)(CCO)CCO)CC4)ccc3OCC)nc12` [Compound 15, 5-(2-ethoxy-5-((4-(1,3,5-trihydroxypentan-3-yl)piperidin-1-yl)sulfonyl)phenyl)-1-methyl-3-propyl-1,6-dihydro-7H-pyrazolo[4,3-d]pyrimidin-7-one], for which the IC50 in data set [1] was 2 nM.

For `CCCc1nc(C)c2c(=O)[nH]c(-c3cc(S(=O)(=O)N4CCC([C@H](O)CO)CC4)ccc3OCC)nn12` [Compound 26, (S)-2-(5-((4-(1,2-dihydroxyethyl)piperidin-1-yl)sulfonyl)-2-ethoxyphenyl)-5-methyl-7-propyl imidazo[5,1-f][1,2,4]triazin-4(3H)-one], in data set [1], the IC50 is 0.07 nM.

Turning to `CCCc1nc(C)c2c(=O)[nH]c(-c3cc(S(=O)(=O)N4CCC(C(O)C(CO)CO)CC4)ccc3OCC)nn12` (centres unmarked) [Compound 29, 2-(5-((4-(1,3-dihydroxy-2-(hydroxymethyl)propyl)piperidin-1-yl)sulfonyl)-2-ethoxyphenyl)-5-methyl-7-propylimidazo[5,1-f][1,2,4]triazin-4(3H)-one], in data set [1], the IC50 was 0.37 nM.

With `CCCc1nn(C)c2c(=O)[nH]c(-c3cc(S(=O)(=O)N4CCN(C)CC4)ccc3OCC)nc12` [Sildenafil, 5-(2-ethoxy-5-((4-methylpiperazin-1-yl)sulfonyl)phenyl)-1-methyl-3-propyl-1,6-dihydro-7H-pyrazolo[4,3-d]pyrimidin-7-one, reference compound], the results for the fraction unbound in data set [2] (read-out: % Bound in human plasma (converted)) and in data set [2] (setting [3]) were 0.0421 and 0.0419, respectively.

Values taken from patent publication US12502393B2, “Dual mode of action soluble guanylate cyclase activators and phosphodiesterase inhibitors and uses thereof” (TOPADUR PHARMA AG, priority 2018, dated 2025).
